The source made the active and inactive calls. No rule for the calls is given here.
System: HepG2 cytotoxicity
Test: human hepatoma cell viability loss – cytotoxicity control (AID 1159563)

CCCN(Cc1ccc(OC)c(OC)c1)Cc1cc(=O)c2c(C)cc(C)cc2[nH]1 was tested. Which IC50 did it give?
Its IC50 is 63 µM.

For O=C1c2cnc(N3CCCC3)nc2CN1c1ccc2c(c1)OCO2, which IC50 is on record?
Its IC50 is > 100 µM (inactive).

With O=C(CN(Cc1ccccn1)Cc1ccccn1)NCc1ccc2c(c1)OCO2 as the compound, how does the IC50 read?
The IC50 was > 160 µM (inactive).

Which IC50 does the source give for O=C(NC(c1ccc(Cl)cc1)c1cnccn1)C1CCN(C(=O)Nc2cccc(C(F)(F)F)c2)CC1 (stereo unspecified) here?
The IC50 was > 100 µM (inactive).

How did the IC50 turn out when O=C1OCc2ccc(Nc3nccc(-c4cnn5ncccc45)n3)cc21 was run?
The IC50 was > 100 µM (inactive).

How did the IC50 turn out when O=c1[nH]cnc2c([C@@H]3O[C@H](CO)[C@@H](O)[C@H]3O)[nH]nc12 was run?
The IC50 was > 100 µM (inactive).

COc1ccc(NS(=O)(=O)c2cc(NC(=O)c3ccc([N+](=O)[O-])s3)ccc2OC)cc1 was tested. Which IC50 did it give?
Its IC50 is > 100 µM (inactive).

Which IC50 does the source give for Cc1cc(Nc2ccc(C#N)c(Cl)c2C)n[nH]1 here?
The IC50 was > 100 µM (inactive).

COc1ccc(-c2cnc(C)o2)cc1S(=O)(=O)Nc1ccc(C)cc1C was tested. Which IC50 did it give?
The IC50 was > 100 µM (inactive).

O=C1CCCCCC1(Cc1cnc[nH]1)c1ccc(Cl)cc1Cl (stereo unspecified) was tested. Which IC50 did it give?
Its IC50 is 79 µM.

With O=C(Nc1nc(-c2ccc(S(=O)(=O)N3CCOCC3)cc2)cs1)c1ccc([N+](=O)[O-])cc1 as the compound, how does the IC50 read?
The IC50 was > 100 µM (inactive).

How did the IC50 turn out when CC(C)c1cc(C(=O)N2CCCC(c3cc4ncccc4[nH]3)C2)on1 (stereo unspecified) was run?
The IC50 was > 100 µM (inactive).

CNC(=O)C1Cc2ccccc2N1C(=O)Cc1ccc(OC)cc1 (stereo unspecified) was tested. Which IC50 did it give?
The IC50 was > 100 µM (inactive).

COc1ccc(-c2csc(NC(=O)c3ccc([N+](=O)[O-])s3)n2)cc1 was tested. Which IC50 did it give?
Its IC50 is > 100 µM (inactive).

CCC(CC)C(=O)Nc1ccc(-c2nnc(-c3ccc(OC)cc3)o2)cc1 was tested. Which IC50 did it give?
Its IC50 is > 100 µM (inactive).

For CC(=O)Nc1ccc(-c2csc(NC(=O)c3ccc([N+](=O)[O-])s3)n2)cc1, which IC50 is on record?
Its IC50 is 50 µM.

Which IC50 does the source give for Cc1nc(C(=O)Nc2ccc3c(c2)OCO3)nn1-c1ccc(Cl)cc1 here?
The IC50 was > 100 µM (inactive).

With CCN(Cc1nc2ccc(C(=O)N3CCN(c4ncccn4)CC3)cc2[nH]1)C1CCCc2cccnc21 (stereo unspecified) as the compound, how does the IC50 read?
Its IC50 is > 100 µM (inactive).

With C=CC[C@@H]1CC=C[C@@H](C)N1C(=O)CCc1nnc(-c2ccc3c(c2)OCO3)o1 as the compound, how does the IC50 read?
Its IC50 is > 100 µM (inactive).

Nc1nonc1-c1nc2cncc(C(=O)N3CC[C@H](N)C3)c2n1CC1CC1 was tested. Which IC50 did it give?
Its IC50 is > 100 µM (inactive).

With Cc1ccc(NC(=O)c2ccnc(N3CCCC3)c2)cc1-c1ccsc1C(N)=O as the compound, how does the IC50 read?
Its IC50 is > 100 µM (inactive).

How did the IC50 turn out when Cc1cc(NC(=O)CC2CCCCC2)n(-c2nc3c(c(=O)[nH]2)CCC3)n1 was run?
Its IC50 is > 100 µM (inactive).

For NCc1ccc2c(Cl)cc(Cl)c(O)c2n1, which IC50 is on record?
The IC50 was 25 µM.

For CCCC(=O)N(Cc1ccccn1)c1nc2ccccc2s1, which IC50 is on record?
The IC50 was > 100 µM (inactive).

Which IC50 does the source give for O=C(Nc1nc(-c2ccccn2)cs1)c1ccccc1-n1cnnn1 here?
The IC50 was 1.6 µM.

COc1cc(Cl)c(C)cc1NC(=O)c1ccc([N+](=O)[O-])s1 was tested. Which IC50 did it give?
Its IC50 is 32 µM.

For COc1ccc2nc(N(Cc3cccnc3)C(=O)C3CCC3)sc2c1, which IC50 is on record?
The IC50 was > 100 µM (inactive).

Cc1ccc(S(=O)(=O)Cn2nnnc2C(c2cccnc2)N2CCN(c3ccccc3)CC2)cc1 (stereo unspecified) was tested. Which IC50 did it give?
The IC50 was > 100 µM (inactive).

COc1ccc(CN2CCCCC2c2nc(-c3cccnc3)no2)cc1 (stereo unspecified) was tested. Which IC50 did it give?
The IC50 was > 100 µM (inactive).

Cc1nc2c(-c3ncn[nH]3)cc(NC(=O)Cc3ccccc3)cn2c1C was tested. Which IC50 did it give?
The IC50 was 16 µM.

How did the IC50 turn out when COc1ccc(NS(=O)(=O)c2ccc(S(=O)(=O)N(C)C3CCCCC3)cc2)c2ncccc12 was run?
Its IC50 is > 100 µM (inactive).

Which IC50 does the source give for Cc1ccccc1CNc1cc(C2CC2)nc(-c2nccn2C)n1 here?
The IC50 was 16 µM.

CN(CC1CCCO1)S(=O)(=O)c1ccc(C(=O)Nc2nc(-c3ccccn3)cs2)cc1 (stereo unspecified) was tested. Which IC50 did it give?
Its IC50 is 63 µM.

With CCCc1nc2nc(N)nc(N)c2cc1CC as the compound, how does the IC50 read?
The IC50 was 20 µM.

Which IC50 does the source give for Cc1nc2nc(C)c(Cc3ccc(C(C)C)cc3)c(=O)n2[nH]1 here?
Its IC50 is > 100 µM (inactive).

Cc1[nH]n2c(=O)c3c(nc2c1-c1ccc(Cl)cc1)CCCC3 was tested. Which IC50 did it give?
Its IC50 is > 100 µM (inactive).

Which IC50 does the source give for C[C@@H](Oc1cc(-n2cnc3ccc(C(O)CO)cc32)sc1C(N)=O)c1ccccc1C(F)(F)F (stereo partly specified) here?
Its IC50 is > 10 µM (inactive).

For CCn1c(-c2nonc2N)nc2c([C@@H](C)O)ncc(O[C@H](CN)c3ccccc3)c21, which IC50 is on record?
Its IC50 is 79 µM.

For NS(=O)(=O)c1ccc(Nc2ncc3cccc(OC4CCNCC4)c3n2)cc1, which IC50 is on record?
Its IC50 is > 100 µM (inactive).

Which IC50 does the source give for Cc1cc2nc(CN(C)Cc3ncccc3C)[nH]c2cc1C here?
The IC50 was 40 µM.

Which IC50 does the source give for O=c1[nH]ccc2ccc(-c3ccncc3)cc12 here?
The IC50 was > 100 µM (inactive).

Which IC50 does the source give for CN1CCCN(C(=O)c2ccc(N3CCCC3)cc2Cl)CC1 here?
The IC50 was > 100 µM (inactive).

For CC(C)(C)Nc1nc(Nc2ccc3c(c2)CS(=O)(=O)C3)nc2[nH]ccc12, which IC50 is on record?
Its IC50 is 32 µM.

With COc1ccc([N+](=O)[O-])cc1NC(=O)Nc1cccc(Cl)c1 as the compound, how does the IC50 read?
Its IC50 is > 100 µM (inactive).

With Cc1c(Nc2cc(C3CC3)[nH]n2)ccc(C#N)c1Cl as the compound, how does the IC50 read?
The IC50 was 40 µM.

For CC(=O)Nc1ccc(-c2cnc(N)c(-c3nc4ccc(F)cc4[nH]3)c2)cc1, which IC50 is on record?
Its IC50 is 10 µM.

Which IC50 does the source give for CCS(=O)(=O)Nc1ccc(C2=NN(C(=O)c3cccs3)C(c3ccccc3OC)C2)cc1 (stereo unspecified) here?
The IC50 was > 100 µM (inactive).

Which IC50 does the source give for Cc1occc1C(=O)Nc1ccccc1C(=O)Nc1nccs1 here?
Its IC50 is > 100 µM (inactive).

Which IC50 does the source give for O=C(CN1CCN(c2ccccn2)CC1)Nc1cc(S(=O)(=O)N2CCCCCC2)ccc1Cl here?
The IC50 was > 100 µM (inactive).

Which IC50 does the source give for CCNc1cc(-c2ccccn2)nc(Nc2ccc(OC)cc2)n1 here?
The IC50 was 40 µM.

How did the IC50 turn out when COc1ccc(C(C)N(C)c2ncc3c(N)nc(N)nc3n2)cc1F (stereo unspecified) was run?
The IC50 was > 100 µM (inactive).

How did the IC50 turn out when COc1ccc(C(=O)Nc2cc(C(F)(F)F)ccc2N2CCOCC2)c(OC)c1 was run?
Its IC50 is > 100 µM (inactive).

COc1ccc([N+](=O)[O-])cc1NC(=O)c1cc(Cl)ccc1O was tested. Which IC50 did it give?
Its IC50 is 10 µM.

For Oc1c(-c2n[nH]c(Cc3ccc(Cl)cc3)n2)ncc2cccnc12, which IC50 is on record?
Its IC50 is 40 µM.

How did the IC50 turn out when COc1ccc(C)cc1-c1csc(NC(=O)C(C)n2ccnc2)n1 (stereo unspecified) was run?
The IC50 was > 100 µM (inactive).

COc1ccc2nccc([C@H](O)CN3CC[C@H](NC(=O)c4ccc(Br)cc4)[C@@H](O)C3)c2n1 was tested. Which IC50 did it give?
The IC50 was > 100 µM (inactive).

O=C(NCCc1csc(-c2ccc(F)cc2)n1)c1cccs1 was tested. Which IC50 did it give?
Its IC50 is > 100 µM (inactive).

O=C(N[C@H](CO)c1ccccc1)c1ccc(-c2c[nH]c3nccc(C(F)(F)F)c23)s1 was tested. Which IC50 did it give?
The IC50 was 63 µM.

For N#Cc1cc(N2CCCC2=O)ccc1Sc1ccccc1CO, which IC50 is on record?
The IC50 was > 100 µM (inactive).

How did the IC50 turn out when Cc1[nH]nc(C(F)(F)F)c1NC(=O)CCn1cc(Cl)c([N+](=O)[O-])n1 was run?
The IC50 was > 100 µM (inactive).

CCOc1ccc(CC(=O)N2c3ccccc3CC2C(=O)NC)cc1 (stereo unspecified) was tested. Which IC50 did it give?
The IC50 was > 100 µM (inactive).

For COc1ccc(-c2cnc(NC(=O)c3ccc(F)cc3)n2C)cc1, which IC50 is on record?
The IC50 was > 100 µM (inactive).

For COc1cccc(Nc2cc(C)nc(-c3ccccn3)n2)c1, which IC50 is on record?
Its IC50 is 50 µM.

How did the IC50 turn out when Cc1ccc(Nc2nc(-c3ccccn3)cc(N3CCCC(O)C3)n2)cc1 (stereo unspecified) was run?
Its IC50 is 40 µM.

For O=C(CN(Cc1ccccn1)Cc1ccccn1)NCc1csc(-c2cccs2)n1, which IC50 is on record?
The IC50 was > 100 µM (inactive).

Which IC50 does the source give for O=C(Nc1nc2cc(Cl)ccc2o1)c1cccc(Cl)c1 here?
The IC50 was > 100 µM (inactive).

O=C(CN(Cc1ccccn1)Cc1ccccn1)NC1Cc2ccccc2C1 was tested. Which IC50 did it give?
Its IC50 is > 160 µM (inactive).

Which IC50 does the source give for Clc1ccc(Sc2cnccc2N2CCOCC2)cc1 here?
The IC50 was > 100 µM (inactive).

Which IC50 does the source give for O=C(Nc1ccc(S(=O)(=O)N2CCCC2)cc1)c1ccc([N+](=O)[O-])s1 here?
The IC50 was 6.3 µM.

COc1ccc(S(=O)(=O)NCc2ccc(-c3ccc(CN(C)CCO)cc3)cc2)cc1 was tested. Which IC50 did it give?
The IC50 was 50 µM.

Which IC50 does the source give for CN(C)CCN(C)Cc1ccc(F)cc1NS(=O)(=O)c1ccc(Cl)c(Cl)c1 here?
Its IC50 is 40 µM.
